Measured values published in US20140080869A1, “Methods for Treating HCV” (priority 2012, published 2014).
Read-outs that look alike come from different tables or passages of the source.

Key:
[1] = test system: HCV replicon with NS5A genotype 6a T58N variant; test: Transient chimeric replicon assay, genotype 6a T58N; assay type: cell-based
Excerpt: (§1) Transiently replicating chimeric replicons containing NS5A from genotype 2-6 wild types or replicons containing variants within NS5A were constructed in the 1b-Con1 background. These replicons also contained a firefly luciferase reporter gene. Variants were introduced by site-directed mutagenesis using the Change-IT Multiple Mutation Site Directed Mutagenesis Kit (USB). After the mutagenesis was confirmed by sequence analysis, the plasmids were linearized with ScaI restriction enzyme. The TranscriptAid T7 High Yield Transcription Kit (Fermentas) was used to transcribe the HCV subgenomic RNA from the plasmids. The RNA was transfected via electroporation into a Huh-7 derived cell line as described (see Middleton et al. and Tripathi et al., supra) except that 3×10^6 cells were electroporated with 15 μg of template RNA and the 96 well plate was seeded with 7.5×10^3 cells per well. Four hours post-transfection, the wells from one plate were harvested for luciferase measurement. […] Luciferin solution (50 μl, Promega) was added to each well, and luciferase activity was measured with a Victor II luminometer (Perkin-Elmer). The percent inhibition of HCV RNA replication was calculated for each compound concentration and the EC50 value was calculated using nonlinear regression curve fitting to the 4-parameter logistic equation and GraphPad Prism 4 software.

[2] = test system: HCV genotype 1b-Con1 stable subgenomic replicon; test: microbe, parasite or virus in culture; details: Hepatitis C virus, read-out: Mean EC50 ± Std. Dev.
[3] = test system: HCV replicon with NS5A genotype 3a wild type; test: microbe, parasite or virus in culture; assay type: cell-based; details: Hepatitis C virus, read-out: Average EC50
Excerpt: (§2) Transiently replicating chimeric replicons containing NS5A from genotype 2-6 wild types or replicons containing variants within NS5A were constructed in the 1b-Con1 background. These replicons also contained a firefly luciferase reporter gene. Variants were introduced by site-directed mutagenesis using the Change-IT Multiple Mutation Site Directed Mutagenesis Kit (USB). After the mutagenesis was confirmed by sequence analysis, the plasmids were linearized with ScaI restriction enzyme. The TranscriptAid T7 High Yield Transcription Kit (Fermentas) was used to transcribe the HCV subgenomic RNA from the plasmids. The RNA was transfected via electroporation into a Huh-7 derived cell line as described (see Middleton et al. and Tripathi et al., supra) except that 3×10^6 cells were electroporated with 15 μg of template RNA and the 96 well plate was seeded with 7.5×10^3 cells per well. Four hours post-transfection, the wells from one plate were harvested for luciferase measurement. This plate provided a measure of the amount of translatable input RNA, and therefore transfection efficiency. To the wells of the remaining plates, a half-log dilution series of the test compound in culture medium (0.5% DMSO final concentration) was added, and plates were incubated at 37° C., 5% CO2 in a humidified incubator for 4 days. After this period, the media was removed and the plates were washed with 100 μl phosphate-buffered saline per well. Luciferin solution (50 μl, Promega) was added to each well, and luciferase activity was measured with a Victor II luminometer (Perkin-Elmer). The percent inhibition of HCV RNA replication was calculated for each compound concentration and the EC50 value was calculated using nonlinear regression curve fitting to the 4-parameter logistic equation and GraphPad Prism 4 software.

[4] = test system: HCV replicon with NS5A genotype 6a wild type; test: microbe, parasite or virus in culture; assay type: cell-based; details: Hepatitis C virus, read-out: Average EC50
Excerpt: as §2

[5] = test system: HCV replicon with NS5A genotype 2a wild type; test: microbe, parasite or virus in culture; assay type: cell-based; details: Hepatitis C virus, read-out: Average EC50
Excerpt: as §2

[6] = test system: HCV replicon with NS5A from genotype 2b; details: read-out: Mean EC50 ± Std. Dev.
[7] = test system: HCV genotype 1b-Con1 stable subgenomic replicon; details: read-out: Mean EC50 ± Std. Dev.
[8] = test system: HCV replicon with NS5A from genotype 6a; details: read-out: Mean EC50 ± Std. Dev.
[9] = test system: HCV replicon with NS5A genotype 5a L31V variant; test: Transient chimeric replicon assay, genotype 5a L31V; assay type: cell-based; details: Hepatitis C virus
Excerpt: as §1

[10] = test system: HCV replicon with NS5A genotype 2b wild type; test: Transient chimeric replicon assay, genotype 2b WT; assay type: cell-based; details: Hepatitis C virus
Excerpt: as §1

[11] = test system: HCV replicon with NS5A genotype 5a wild type; test: Transient chimeric replicon assay, genotype 5a WT; assay type: cell-based; details: Hepatitis C virus
Excerpt: as §1

[12] = test system: HCV replicon with NS5A from genotype 3a; test: microbe, parasite or virus in culture; details: Hepatitis C virus, read-out: Mean EC50 ± Std. Dev.
[13] = test system: HCV replicon with NS5A from genotype 3a; details: read-out: Mean EC50 ± Std. Dev.
[14] = test system: HCV replicon with NS5A from genotype 2a; details: read-out: Mean EC50 ± Std. Dev.
[15] = test system: HCV replicon with NS5A genotype 6a T58A variant; test: Transient chimeric replicon assay, genotype 6a T58A; assay type: cell-based
Excerpt: as §1

[16] = test system: HCV replicon with NS5A genotype 3a Y93H variant; test: Transient chimeric replicon assay, genotype 3a Y93H; assay type: cell-based; details: Hepatitis C virus
Excerpt: as §1

[17] = test system: HCV replicon with NS5A genotype 3a M28T variant; test: Transient chimeric replicon assay, genotype 3a M28T; assay type: cell-based
Excerpt: as §1

[18] = test system: HCV replicon with NS5A from genotype 6a; test: microbe, parasite or virus in culture; details: Hepatitis C virus, read-out: Mean EC50 ± Std. Dev.
[19] = test system: HCV replicon with NS5A genotype 2b L31V variant; test: Transient chimeric replicon assay, genotype 2b L31V; assay type: cell-based
Excerpt: as §1

[20] = test system: HCV replicon with NS5A from genotype 2a; test: microbe, parasite or virus in culture; details: Hepatitis C virus, read-out: Mean EC50 ± Std. Dev.
[21] = test system: HCV replicon with NS5A genotype 2a T24A variant; test: Transient chimeric replicon assay, genotype 2a T24A; assay type: cell-based
Excerpt: as §1

[22] = test system: HCV replicon with NS5A genotype 5a L31F variant; test: Transient chimeric replicon assay, genotype 5a L31F; assay type: cell-based
Excerpt: as §1

[23] = test system: HCV replicon with NS5A from genotype 2b; test: microbe, parasite or virus in culture; details: Hepatitis C virus, read-out: Mean EC50 ± Std. Dev.

**Q.** How did the EC50 [1] turn out when COC(=O)N[C@H](C(=O)N1CCC[C@H]1c1nc2cc([C@H]3CC[C@H](c4ccc5[nH]c([C@@H]6CCCN6C(=O)[C@@H](NC(=O)OC)C(C)C)nc5c4)N3c3cc(F)c(N4CCC(c5ccccc5)CC4)c(F)c3)ccc2[nH]1)C(C)C [Compound 1, methyl {(2S)-1-[(2S)-2-{5-[(2R,5R)-1-[3,5-difluoro-4-(4-phenylpiperidin-1-yl)phenyl]-5-{2-[(2S)-1-{(2S)-2-[(methoxycarbonyl)amino]-3-methylbutanoyl}pyrrolidin-2-yl]-1H-benzimidazol-5-yl}pyrrolidin-2-yl]-1H-benzimidazol-2-yl}pyrrolidin-1-yl]-3-methyl-1-oxobutan-2-yl}carbamate] was run?
**A.** 3.2 pM

**Q.** And the EC50 ([1]; Hepatitis C virus)?
**A.** < 5 pM

**Q.** What about the EC50 [2] of the same compound?
**A.** < 10 pM

**Q.** What about the EC50 [3] of the same compound?
**A.** 2.9 pM

**Q.** And the EC50 [4]?
**A.** 2.4 pM

**Q.** And the EC50 [5]?
**A.** 3 pM

**Q.** What about the EC50 [6] of the same compound?
**A.** 6.4 ± 3.1 pM

**Q.** What about the EC50 [7] of the same compound?
**A.** 5.1 ± 1.8 pM

**Q.** What about the EC50 [8] of the same compound?
**A.** 8.7 ± 5.5 pM

**Q.** And the EC50 [9]?
**A.** < 5 pM

**Q.** What about the EC50 [10] of the same compound?
**A.** 1.8 pM

**Q.** What about the EC50 [11] of the same compound?
**A.** 1.1 pM

**Q.** What about the EC50 [12] of the same compound?
**A.** < 10 pM

**Q.** What about the EC50 [13] of the same compound?
**A.** 6.4 ± 2.8 pM

**Q.** And the EC50 [14]?
**A.** 9 ± 4.6 pM

**Q.** And the EC50 [15]?
**A.** 2.5 pM

**Q.** What about the EC50 ([15]; Hepatitis C virus) of the same compound?
**A.** < 5 pM

**Q.** What about the EC50 [16] of the same compound?
**A.** 273 pM

**Q.** What about the EC50 [17] of the same compound?
**A.** 4.6 pM

**Q.** And the EC50 ([17]; Hepatitis C virus)?
**A.** < 5 pM

**Q.** What about the EC50 [18] of the same compound?
**A.** < 10 pM

**Q.** And the EC50 [19]?
**A.** 3 pM

**Q.** What about the EC50 ([19]; Hepatitis C virus) of the same compound?
**A.** < 5 pM

**Q.** What about the EC50 [20] of the same compound?
**A.** < 10 pM

**Q.** And the EC50 [21]?
**A.** 3 pM

**Q.** What about the EC50 ([21]; Hepatitis C virus) of the same compound?
**A.** < 5 pM

**Q.** What about the EC50 [22] of the same compound?
**A.** 3.3 pM

**Q.** What about the EC50 ([22]; Hepatitis C virus) of the same compound?
**A.** < 5 pM

**Q.** And the EC50 [23]?
**A.** < 10 pM
